In patent US7893288B2, “Poly-halogenated triazapentadiene compositions” (Board of Regents, The University of Texas System, priority 2007, dated 2011):
“And” between values parts separate entries of the source, which are not always exact repeats. Identical values can stand only once. Marks after values point to notes of the source that are not given here.

Experiments:
Type in all cases: cell-based
[1] = tested on: Bacillus subtilis W168; assay: Minimum inhibitory concentration in LB broth, B. subtilis; settings: for Relative to AgNO3: efficacy per mole from MIC values
[2] = tested on: Gram positive and Gram negative bacteria; assay: Antimicrobial activity, summary of TABLES 16-18
Protocol: The new class of fluorinated triazapentadiene compounds with and without metal complexation as described herein were analyzed for antibacterial activity against several bacterial strains (both Gram positive and Gram negative). Methods for antimicrobial analysis included a modified Kirby-Bauer method and a determination of their minimum inhibitory concentrations. In brief, the modified Kirby-Bauer method relied on placement of a filter disk impregnated with a desired compound on a solid growth medium. Bacteria were grown to a confluent lawn and the extent of growth inhibition was measured (e.g., as an extent/percentage of a clear zone on the disk and/or solid medium).
For MIC assessment, compounds were initially dissolved in DMSO and serial dilutions of soluble compounds were made in LB broth.

[3] = tested on: Pseudomonas aeruginosa PAO1; assay: Minimum inhibitory concentration in LB broth, P. aeruginosa; settings: for Relative to AgNO3: efficacy per mole from MIC values
[4] = tested on: Escherichia coli HB101; assay: Minimum inhibitory concentration in LB broth, E. coli; settings: for Relative to AgNO3: efficacy per mole from MIC values;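 on all read-outs here: broth dilution MIC, test compounds first taken up in DMSO, then serially diluted in LB medium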
[5] = tested on: Pseudomonas aeruginosa PAO1; assay: Disk sensitivity test (modified Kirby-Bauer), P. aeruginosa;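 further: Compound-loaded filter disks on LB agar lawns, DMSO as solvent, zone of inhibition around each disk read after overnight incubation at 37 °C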
Protocol: (§1) Filter disks were provided as sterile filter paper (about 6 mm in diameter) and spotted with 20 μL of a selected compound. Each compound was initially dissolved in dimethylsulfoxide (DMSO); any subsequent dilutions were also made in DMSO. Each filter was placed on an LB agar plate spread with 100 μL of a bacterial culture that had been grown overnight in suitable LB broth. Plates were incubated overnight at 37° C., after which, the extent of growth inhibition around each filter disk was measured. Bacterial strains included Staphylococcus aureus (ATCC 25923), Pseudomonas aeruginosa PAO1, Bacillus subtilis W168 and Escherichia coli HB101. […] The latter two strains are non-pathogenic Gram-positive and Gram-negative bacterial strains, respectively.

[6] = tested on: Staphylococcus aureus (ATCC 25923); assay: Disk sensitivity test (modified Kirby-Bauer), S. aureus;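 further: Compound-loaded filter disks on LB agar plates seeded with a confluent bacterial lawn, compound dissolved in DMSO, plates kept overnight at 37 °C, then inhibition zone around disk measured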
Protocol: as §1

[7] = tested on: Escherichia coli HB101; assay: Disk sensitivity test (modified Kirby-Bauer), E. coli;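 further: filter disk loaded with compound in DMSO laid on an LB agar bacterial lawn, kept overnight at 37 °C, then the inhibition zone around the disk is measured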
Protocol: as §1

[8] = tested on: Bacillus subtilis W168; assay: Disk sensitivity test (modified Kirby-Bauer), B. subtilis;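 further: Compound-loaded filter disks on LB agar plates seeded with a bacterial lawn, plates held overnight at 37 °C, then the clear zone around each disk measured, compounds in DMSO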
Protocol: as §1

[9] = tested on: Staphylococcus aureus (ATCC 25923); assay: Minimum inhibitory concentration in LB broth, S. aureus; settings: for Relative to AgNO3: efficacy per mole from MIC values

Fc1cccc(C(F)(F)F)c1N=C(N=C([N]([Ag])c1c(F)cccc1C(F)(F)F)C(F)(F)C(F)(F)C(F)(F)F)C(F)(F)C(F)(F)C(F)(F)F [[N{(C3F7)C(2-F,6-CF3C6H3)N}2]Ag]
MIC [1]: 8.70 × 10^−2 μg/ml and 1.04 × 10^−4 mM | Relative to AgNO3 [1]: 1413.46 | antimicrobial activity (in words) [2]: Effective | MIC [3]: 17.56 μg/ml and 2.1 × 10^−2 mM | sensitivity of the bacteria to the compound (in words) [3]: most sensitive | Relative to AgNO3 [3]: 8.76 × 10^−1 | MIC [4]: 8.78 μg/ml and 1.00 × 10^−2 mM | sensitivity of the bacteria to the compound (in words) [4]: most sensitive | Relative to AgNO3 [4]: 5.89 | Diameter of the zone of growth inhibition ([5]; 5.7 × 10^0 mM): 15.0 mm | Diameter of the zone of growth inhibition ([5]; 5.7 × 10^1 mM): 23.5 mm | Diameter of the zone of growth inhibition ([5]; 5.7 × 10^−1 mM): 9.0 mm | Diameter of the zone of growth inhibition ([5]; 5.7 × 10^−2 mM): 6.0 (NZ) mm | Diameter of the zone of growth inhibition ([5]; 5.7 × 10^−3 mM): 6.0 (NZ) mm | Diameter of the zone of growth inhibition ([6]; 5.7 × 10^0 mM): 14.0 mm | Diameter of the zone of growth inhibition ([6]; 5.7 × 10^1 mM): 19.0 mm | Diameter of the zone of growth inhibition ([6]; 5.7 × 10^−1 mM): 9.5 mm | Diameter of the zone of growth inhibition ([6]; 5.7 × 10^−2 mM): 9.0 mm | Diameter of the zone of growth inhibition ([6]; 5.7 × 10^−3 mM): 7.5 mm | Diameter of the zone of growth inhibition ([6]; 5.7 × 10^−4 mM): 6.0 (NZ) mm | Diameter of the zone of growth inhibition ([6]; 5.7 × 10^−5 mM): 6.0 (NZ) mm | Diameter of the zone of growth inhibition ([6]; 5.7 × 10^−6 mM): 6.0 (NZ) mm | Diameter of the zone of growth inhibition ([6]; 5.7 × 10^−7 mM): 6.0 (NZ) mm | Diameter of the zone of growth inhibition ([7]; 5.7 × 10^0 mM): 12.5 mm | Diameter of the zone of growth inhibition ([7]; 5.7 × 10^1 mM): 22.0 mm | Diameter of the zone of growth inhibition ([7]; 5.7 × 10^−1 mM): 10.0 mm | Diameter of the zone of growth inhibition ([7]; 5.7 × 10^−2 mM): 9.0 mm | Diameter of the zone of growth inhibition ([7]; 5.7 × 10^−3 mM): 8.0 mm | Diameter of the zone of growth inhibition ([8]; 5.7 × 10^0 mM): 131.0 mm | Diameter of the zone of growth inhibition ([8]; 5.7 × 10^1 mM): 115.0 mm | Diameter of the zone of growth inhibition ([8]; 5.7 × 10^−1 mM): 78.0 mm | Diameter of the zone of growth inhibition ([8]; 5.7 × 10^−2 mM): 39.0 mm | Diameter of the zone of growth inhibition ([8]; 5.7 × 10^−3 mM): 10.0 mm | Diameter of the zone of growth inhibition ([8]; 5.7 × 10^−4 mM): 10.0 mm | Diameter of the zone of growth inhibition ([8]; 5.7 × 10^−5 mM): 9.0 mm | Diameter of the zone of growth inhibition ([8]; 5.7 × 10^−6 mM): 9.0 mm | Diameter of the zone of growth inhibition ([8]; 5.7 × 10^−7 mM): 7.5 mm | MIC [9]: 8.78 × 10^−1 μg/ml and 1.05 × 10^−3 mM | Relative to AgNO3 [9]: 70.10

Fc1c(F)c(F)c(N=C(N=C([N]([Ag])c2c(F)c(F)c(F)c(F)c2F)C(F)(F)C(F)(F)C(F)(F)F)C(F)(F)C(F)(F)C(F)(F)F)c(F)c1F [[N{(C3F7)C(C6F5)N}2]Ag]
MIC [1]: 1.80 μg/ml and 2.13 × 10^−3 mM | Relative to AgNO3 [1]: 69.01 | antimicrobial activity (in words) [2]: Effective | MIC [3]: 23.69 μg/ml and 2.80 × 10^−2 mM | sensitivity of the bacteria to the compound (in words) [3]: most sensitive | Relative to AgNO3 [3]: 6.57 × 10^−1 | MIC [4]: 23.69 μg/ml and 2.80 × 10^−2 mM | sensitivity of the bacteria to the compound (in words) [4]: most sensitive | Relative to AgNO3 [4]: 2.10 | Diameter of the zone of growth inhibition ([5]; 5.7 × 10^0 mM): 16.5 mm | Diameter of the zone of growth inhibition ([5]; 5.7 × 10^1 mM): 27.0 mm | Diameter of the zone of growth inhibition ([5]; 5.7 × 10^−1 mM): 12.0 mm | Diameter of the zone of growth inhibition ([5]; 5.7 × 10^−2 mM): 8.0 mm | Diameter of the zone of growth inhibition ([5]; 5.7 × 10^−3 mM): 7.5 mm | Diameter of the zone of growth inhibition ([5]; 5.7 × 10^−4 mM): 6.0 (NZ) mm | Diameter of the zone of growth inhibition ([5]; 5.7 × 10^−5 mM): 6.0 (NZ) mm | Diameter of the zone of growth inhibition ([5]; 5.7 × 10^−6 mM): 6.0 (NZ) mm | Diameter of the zone of growth inhibition ([6]; 5.7 × 10^0 mM): 33.0 mm | Diameter of the zone of growth inhibition ([6]; 5.7 × 10^1 mM): 70.0 mm | Diameter of the zone of growth inhibition ([6]; 5.7 × 10^−1 mM): 39.0 mm | Diameter of the zone of growth inhibition ([6]; 5.7 × 10^−2 mM): 21.5 mm | Diameter of the zone of growth inhibition ([6]; 5.7 × 10^−3 mM): 10.0 mm | Diameter of the zone of growth inhibition ([6]; 5.7 × 10^−4 mM): 6.0 (NZ)^b mm | Diameter of the zone of growth inhibition ([6]; 5.7 × 10^−5 mM): 6.0 (NZ) mm | Diameter of the zone of growth inhibition ([6]; 5.7 × 10^−6 mM): 6.0 (NZ) mm | Diameter of the zone of growth inhibition ([7]; 5.7 × 10^0 mM): 14.0 mm | Diameter of the zone of growth inhibition ([7]; 5.7 × 10^1 mM): 18.0 mm | Diameter of the zone of growth inhibition ([7]; 5.7 × 10^−1 mM): 11.0 mm | Diameter of the zone of growth inhibition ([7]; 5.7 × 10^−2 mM): 8.5 mm | Diameter of the zone of growth inhibition ([7]; 5.7 × 10^−3 mM): 8.0 mm | Diameter of the zone of growth inhibition ([7]; 5.7 × 10^−4 mM): 6.0 (NZ) mm | Diameter of the zone of growth inhibition ([7]; 5.7 × 10^−5 mM): 6.0 (NZ) mm | Diameter of the zone of growth inhibition ([7]; 5.7 × 10^−6 mM): 6.0 (NZ) mm | Diameter of the zone of growth inhibition ([8]; 5.7 × 10^0 mM): 37.0 mm | Diameter of the zone of growth inhibition ([8]; 5.7 × 10^1 mM): 47.0 mm | Diameter of the zone of growth inhibition ([8]; 5.7 × 10^−1 mM): 38.0 mm | Diameter of the zone of growth inhibition ([8]; 5.7 × 10^−2 mM): 22.0 mm | Diameter of the zone of growth inhibition ([8]; 5.7 × 10^−3 mM): 11.0 mm | Diameter of the zone of growth inhibition ([8]; 5.7 × 10^−4 mM): 7.5 mm | Diameter of the zone of growth inhibition ([8]; 5.7 × 10^−5 mM): 6.0 (NZ) mm | Diameter of the zone of growth inhibition ([8]; 5.7 × 10^−6 mM): 6.0 (NZ) mm | MIC [9]: 1.80 μg/ml and 2.13 × 10^−3 mM | Relative to AgNO3 [9]: 34.45
